Experimental findings from PubChem BioAssay (NCI) are described below.

What all share (assay): inhibition of tumour cell growth, NCI panel, 48 h
Assay [1] relates to ACHN renal.
For assay [2], the system named is HOP-92 NSCLC.
Assay [3] deals with OVCAR-4 ovarian.
For assay [4], the system named is OVCAR-5 ovarian.
The test system of assay [5] is SK-MEL-2 melanoma.
Assay [6] has as its system SNB-75 CNS.
The subject of assay [7] is SW-620 colon.

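Interpolation was linear, between the two tested concentrations surrounding the appropriate level; five concentrations were tested over 48 hours in 96-well plates. GI50 = concentration required for 50% inhibition of growth. TGI: concentration producing complete growth inhibition.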

Take `Cn1cc(-c2ccc(-c3cncc(Cl)c3N3CCC4(CCNC4=O)CC3)cc2)cn1`: the GI50 in assay [1] was 23 µM; in assay [2] it was greater than 100 µM; in assay [3], 65.1 µM; in assay [4] it was greater than 100 µM; in assay [5] it was 24.7 µM; in assay [6], 34.8 µM. For the same compound, the GI50 in assay [7] is 47.7 µM. Also, the TGI in assay [1], in assay [2], in assay [3], in assay [4], in assay [5] and in assay [6] was greater than 100 µM throughout. The compound also showed a TGI in assay [7] greater than 100 µM.

As for `N#Cc1ccc(OC(=O)Nc2ccc(Cl)c(Cl)c2)cc1`, the GI50 in assay [1] was 2.97 µM; in assay [2] it was 1.9 µM; in assay [3], 2.24 µM; in assay [4], 5.79 µM; in assay [5] it was 4.13 µM; in assay [6], 2.78 µM. For the same compound, the GI50 in assay [7] was 3.31 µM. Moreover, the TGI is 14.5 µM in assay [1]; 7.34 µM in assay [2]; 17.7 µM in assay [3]; greater than 100 µM in assay [4]; 18 µM in assay [5]; 20.6 µM in assay [6]. This compound also had a TGI in assay [7] greater than 100 µM.

`CC/C=C/C/C=C/C/C=C/C/C=C/C/C=C/C/C=C/CCC(=O)Nc1ccn([C@@H]2O[C@H](CO)[C@@H](O)C2(F)F)c(=O)n1`: the GI50 in assay [1] was less than 0.0132 µM; in assay [2], 0.652 µM; in assay [3], 17.5 µM; in assay [4] it was 2.83 µM; in assay [5], 35.9 µM; in assay [6], 0.863 µM. Moreover, the GI50 in assay [7] is 0.148 µM. The TGI in assay [1] is 14.6 µM; in assay [2], 30.5 µM; in assay [3], 65.5 µM; in assay [4] it was greater than 60.8 µM; in assay [5] it was greater than 66.8 µM; in assay [6], greater than 50.1 µM. The compound further registered a TGI in assay [7] of 47.6 µM.

With `O=C(OCc1ccc2c(Cl)cc(Cl)c(O)c2n1)N1CCN(C(=O)c2cc3cc(F)ccc3[nH]2)CC1`, the GI50 is 0.611 µM in assay [1]; 3.1 µM in assay [2]; 5.37 µM in assay [3]; greater than 37.5 µM in assay [4]; 3.23 µM in assay [5]; 2.85 µM in assay [6]. In assay [7], the GI50 is 0.83 µM. In addition, the TGI in assay [1], in assay [2], in assay [3], in assay [4], in assay [5] and in assay [6] was greater than 100 µM throughout. Further, in assay [7], the TGI was greater than 100 µM.

For `NC(=S)N/N=C/c1cc(-c2cccc(N)c2)ccn1`, the GI50 in assay [1] is 1.06 µM; in assay [2], 0.314 µM; in assay [3], 2.66 µM; in assay [4], 3.96 µM; in assay [5], 3.6 µM; in assay [6], 2.15 µM. Further, the GI50 in assay [7] was 3.45 µM. The TGI in assay [1] is 16.1 µM; in assay [2] it was 40 µM; in assay [3], greater than 100 µM; in assay [4], greater than 100 µM; in assay [5] it was 43.8 µM; in assay [6], greater than 100 µM. Moreover, the TGI in assay [7] is greater than 81.8 µM.

With `Cn1c(=O)c2c(ncn2CC(=O)Nc2ccc(-c3ccccc3)nn2)n(C)c1=O`, the GI50 in assay [1], in assay [2], in assay [3], in assay [4], in assay [5] and in assay [6] was greater than 100 µM each time. Besides, the GI50 in assay [7] was greater than 100 µM. The TGI in assay [1], in assay [2], in assay [3], in assay [4], in assay [5] and in assay [6] was greater than 100 µM in each case. In assay [7], the TGI was greater than 100 µM.

For the compound `O=C(O)C12CC3(C(=O)O)CC(C(=O)O)(CC(C(=O)O)(C1)C3=O)C2=O`, the TGI in assay [1], in assay [2], in assay [3], in assay [4], in assay [5] and in assay [6] was greater than 100 µM in each case. This compound also showed a TGI in assay [7] greater than 100 µM.

`CC[C@@]1(O)C(=O)OCc2c1cc1n(c2=O)Cc2c-1nc1cc(F)c(C)c3c1c2[C@@H](N)CC3`: the GI50 was less than 0.01 µM in assay [1]; less than 0.01 µM in assay [2]; 0.0656 µM in assay [3]; 0.0201 µM in assay [4]; 0.138 µM in assay [5]; less than 0.0137 µM in assay [6]. Besides, the GI50 in assay [7] was less than 0.01 µM. The TGI in assay [1] is 0.026 µM; in assay [2], 0.307 µM; in assay [3], greater than 100 µM; in assay [5] it was 1.4 µM; in assay [6], 0.101 µM; in assay [7], greater than 100 µM.

With `Nc1nc(N)nc(CCCc2nc(N)nc(N)n2)n1`, the TGI in assay [1], in assay [2], in assay [3], in assay [4], in assay [5] and in assay [6] was greater than 100 µM in each case. The compound further displayed a TGI in assay [7] greater than 100 µM.

As for `Cc1ncc([N+](=O)[O-])n1CCNS(=O)(=O)CCCn1ncnc1[N+](=O)[O-]`, the TGI in assay [1], in assay [2], in assay [3], in assay [4], in assay [5] and in assay [6] was greater than 100 µM throughout. Moreover, the TGI in assay [7] was greater than 100 µM.

Take `CO/N=C(/C)c1cccc(Nc2cc(-c3ccccc3)nc3ccc(OC)cc23)c1`: the GI50 in assay [1] is 14.1 µM; in assay [2], 2.55 µM; in assay [3], 20.2 µM; in assay [4] it was 15.3 µM; in assay [5], 50.3 µM; in assay [6], 42.9 µM. For the same compound, the GI50 in assay [7] was 4.74 µM. For the same compound, the TGI in assay [1] was 31.5 µM; in assay [2], 8.55 µM; in assay [3], 66.6 µM; in assay [4] it was 37.3 µM; in assay [5], greater than 100 µM; in assay [6], greater than 100 µM. This compound also registered a TGI in assay [7] of 29.6 µM.
